This note sets out measurements from US20250145633A1, “SUBSTITUTED FURANOPYRIMIDINE COMPOUNDS AS PDE1 INHIBITORS” (Dart NeuroScience, LLC, priority 2017, published 2025).

One experiment deals with human PDE1B enzyme (Homo sapiens (Human), UniProt Q01064). Briefly: IMAP TR-FRET PDE1B enzymatic assay. Format: biochemical. As to conditions: negative log of half-maximal molar inhibitory concentration; 200 nM FAM-cAMP; values given as bins. An outline of the steps:
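Full-length GST-tagged human PDE1B (250 pg/well) in IMAP BSA buffer with 10 U/ml calmodulin and 2.5 mM CaCl2; compound pre-incubated 5 min at room temperature, then 200 nM (final) FAM-cAMP for 30 min. IMAP binding reagent/Tb added, 1 h; TR-FRET 520/490 ratio read. IC50 from sigmoidal dose-response fit.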
(In general: TR-FRET usually uses a lanthanide donor and a delayed reading to cut background.)
With `Cc1oc2ncnc(NC3(C)CC3)c2c1C(=O)N1CCC(C)(c2ccc(F)cc2)C1` (centres unmarked) [Example 85, 5-[3-(4-Fluorophenyl)-3-methylpyrrolidine-1-carbonyl]-6-methyl-N-(1-methylcyclopropyl)furo[2,3-d]pyrimidin-4-amine], the “PDE1b (pIC50)” value is over 8.

As to `Cc1oc2ncnc(NC3(C)CC3)c2c1C(=O)NCc1ccc(F)c(C#N)c1` [Example 88, N-[(3-Cyano-4-fluorophenyl)methyl]-6-methyl-4-[(1-methylcyclopropyl)amino]furo[2,3-d]pyrimidine-5-carboxamide], the “PDE1b (pIC50)” value is given as over 8.

In the case of `Cc1oc2ncnc(NC3(C)CC3)c2c1C(=O)N1CC(O)(c2ccc(F)cc2)C1` [Example 101, 3-(4-Fluorophenyl)-1-{6-methyl-4-[(1-methylcyclopropyl)amino]furo[2,3-d]pyrimidine-5-carbonyl}azetidin-3-ol], the “PDE1b (pIC50)” value is recorded as over 8.

Take `COC1(c2ccccc2)CN(C(=O)c2c(C)oc3ncnc(NC4(C)CC4)c23)C1` [Example 103, 5-(3-Methoxy-3-phenylazetidine-1-carbonyl)-6-methyl-N-(1-methylcyclopropyl)furo[2,3-d]pyrimidin-4-amine]: the “PDE1b (pIC50)” value is given as over 8.

The same experiment, now with this note: negative log of half-maximal molar inhibitory concentration; 200 nM FAM-cAMP; values given as bins; read-out: PDE1b (pIC50) (converted).
On to `Cc1oc2ncnc(NC3(C)CC3)c2c1C(=O)N1CCC(c2cccnc2)C1` (centres unmarked) [Example 71, 6-Methyl-N-(1-methylcyclopropyl)-5-[3-(pyridin-3-yl)pyrrolidine-1-carbonyl]furo[2,3-d]pyrimidin-4-amine], for which the IC50 is 10 to 100 nM.

As for `Cc1oc2ncnc(NC3(C)CC3)c2c1C(=O)N1CCC(c2ccncc2)C1` (centres unmarked) [Example 72, 6-Methyl-N-(1-methylcyclopropyl)-5-[3-(pyridin-4-yl)pyrrolidine-1-carbonyl]furo[2,3-d]pyrimidin-4-amine], the IC50 is 10 to 100 nM.

As for `Cc1oc2ncnc(NC3(C)CC3)c2c1C(=O)NCc1nccs1` [Example 73, 6-Methyl-4-[(1-methylcyclopropyl)amino]-N-(1,3-thiazol-2-ylmethyl)furo[2,3-d]pyrimidine-5-carboxamide], the IC50 is 10 to 100 nM.

For the molecule `Cc1oc2ncnc(NC3(C)CC3)c2c1C(=O)NCc1cncs1` [Example 74, 6-Methyl-4-[(1-methylcyclopropyl)amino]-N-(1,3-thiazol-5-ylmethyl)furo[2,3-d]pyrimidine-5-carboxamide], the IC50 is 10 to 100 nM.

For the molecule `Cc1oc2ncnc(NC3(C)CC3)c2c1C(=O)NCc1cscn1` [Example 75, 6-Methyl-4-[(1-methylcyclopropyl)amino]-N-(1,3-thiazol-4-ylmethyl)furo[2,3-d]pyrimidine-5-carboxamide], the IC50 is 10 to 100 nM.

In the case of `Cc1oc2ncnc(NC3(C)CC3)c2c1C(=O)NCc1ccccn1` [Example 76, 6-Methyl-4-[(1-methylcyclopropyl)amino]-N-(pyridin-2-ylmethyl)furo[2,3-d]pyrimidine-5-carboxamide], the IC50 is 10 to 100 nM.

With `Cc1oc2ncnc(NC3(C)CC3)c2c1C(=O)NC(C)c1ccccn1` (centres unmarked) [Example 77, 6-Methyl-4-[(1-methylcyclopropyl)amino]-N-[1-(pyridin-2-yl)ethyl]furo[2,3-d]pyrimidine-5-carboxamide], the IC50 is 10 to 100 nM.

With `Cc1oc2ncnc(NC3(C)CC3)c2c1C(=O)NC(C)(C)c1ccccn1` [Example 78, 6-Methyl-4-[(1-methylcyclopropyl)amino]-N-[2-(pyridin-2-yl)propan-2-yl]furo[2,3-d]pyrimidine-5-carboxamide], the IC50 is 10 to 100 nM.

Turning to `Cc1oc2ncnc(NC3(C)CC3)c2c1C(=O)NC1(c2ccccn2)CC1` [Example 79, 6-Methyl-4-[(1-methylcyclopropyl)amino]-N-[1-(pyridin-2-yl)cyclopropyl]furo[2,3-d]pyrimidine-5-carboxamide], the IC50 is 10 to 100 nM.

For the molecule `CNC(=O)c1c(C)oc2ncnc(NC3(C)CC3)c12` [Example 80, N,6-Dimethyl-4-[(1-methylcyclopropyl)amino]furo[2,3-d]pyrimidine-5-carboxamide], the IC50 is 100 to 1000 nM.

In the case of `Cc1oc2ncnc(NC3(C)CC3)c2c1C(=O)N(C)C` [Example 81, N,N,6-Trimethyl-4-[(1-methylcyclopropyl)amino]furo[2,3-d]pyrimidine-5-carboxamide], the IC50 is 100 to 1000 nM.

Consider `CCNC(=O)c1c(C)oc2ncnc(NC3(C)CC3)c12` [Example 82, N-Ethyl-6-methyl-4-[(1-methylcyclopropyl)amino]furo[2,3-d]pyrimidine-5-carboxamide], for which the IC50 is 10 to 100 nM.

Regarding `Cc1oc2ncnc(NC3(C)CC3)c2c1C(=O)NC1COC1` [Example 83, 6-Methyl-4-[(1-methylcyclopropyl)amino]-N-(oxetan-3-yl)furo[2,3-d]pyrimidine-5-carboxamide], the IC50 is 100 to 1000 nM.

Regarding `Cc1oc2ncnc(NC3(C)CC3)c2c1C(=O)NC1(C(F)(F)F)CC1` [Example 86, 6-Methyl-4-[(1-methylcyclopropyl)amino]-N-[1-(trifluoromethyl)cyclopropyl]furo[2,3-d]pyrimidine-5-carboxamide], the IC50 is 10 to 100 nM.

`Cc1oc2ncnc(NC3(C)CC3)c2c1C(=O)NCc1ccc(C#N)c(F)c1` [Example 87, N-[(4-Cyano-3-fluorophenyl)methyl]-6-methyl-4-[(1-methylcyclopropyl)amino]furo[2,3-d]pyrimidine-5-carboxamide]: the IC50 was 10 to 100 nM.

In the case of `Cc1oc2ncnc(NC3(C)CC3)c2c1C(=O)NC1(C)CC1` [Example 89, 6-Methyl-N-(1-methylcyclopropyl)-4-[(1-methylcyclopropyl)amino]furo[2,3-d]pyrimidine-5-carboxamide], the IC50 was 10 to 100 nM.

For `Cc1oc2ncnc(NC3(C)CC3)c2c1C(=O)NCC1COC1` [Example 90, 6-Methyl-4-[(1-methylcyclopropyl)amino]-N-(oxetan-3-ylmethyl)furo[2,3-d]pyrimidine-5-carboxamide], the IC50 is 100 to 1000 nM.

`Cc1oc2ncnc(NC3(C)CC3)c2c1C(=O)NC1(C#N)CCC1` [Example 91, N-(1-Cyanocyclobutyl)-6-methyl-4-[(1-methylcyclopropyl)amino]furo[2,3-d]pyrimidine-5-carboxamide]: the IC50 was 10 to 100 nM.

Consider `Cc1oc2ncnc(NC3(C)CC3)c2c1C(=O)NCc1ccon1` [Example 92, 6-Methyl-4-[(1-methylcyclopropyl)amino]-N-(1,2-oxazol-3-ylmethyl)furo[2,3-d]pyrimidine-5-carboxamide], for which the IC50 is 10 to 100 nM.

On to `Cc1oc2ncnc(NC3(C)CC3)c2c1C(=O)NCC1(C)COC1` [Example 93, 6-Methyl-4-[(1-methylcyclopropyl)amino]-N-[(3-methyloxetan-3-yl)methyl]furo[2,3-d]pyrimidine-5-carboxamide], for which the IC50 is 10 to 100 nM.

As for `Cc1oc2ncnc(NC3(C)CC3)c2c1C(=O)NCC1(F)COC1` [Example 94, N-[(3-Fluorooxetan-3-yl)methyl]-6-methyl-4-[(1-methylcyclopropyl)amino]furo[2,3-d]pyrimidine-5-carboxamide], the IC50 is 100 to 1000 nM.

Turning to `COCCNC(=O)c1c(C)oc2ncnc(NC3(C)CC3)c12` [Example 95, N-(2-Methoxyethyl)-6-methyl-4-[(1-methylcyclopropyl)amino]furo[2,3-d]pyrimidine-5-carboxamide], the IC50 is 100 to 1000 nM.

Regarding `Cc1oc2ncnc(NC3(C)CC3)c2c1C(=O)NCCN1CCOCC1` [Example 96, 6-Methyl-4-[(1-methylcyclopropyl)amino]-N-[2-(morpholin-4-yl)ethyl]furo[2,3-d]pyrimidine-5-carboxamide], the IC50 was 10 to 100 nM.

Regarding `Cc1nc(CNC(=O)c2c(C)oc3ncnc(NC4(C)CC4)c23)cs1` [Example 97, 6-M ethyl-N-[(2-methyl-1,3-thiazol-4-yl)methyl]-4-[(1-methylcyclopropyl)amino]furo[2,3-d]pyrimidine-5-carboxamide], the IC50 was 10 to 100 nM.

Take `Cc1oc2ncnc(NC3(C)CC3)c2c1C(=O)NCc1ccc[nH]1` [Example 98, 6-Methyl-4-[(1-methylcyclopropyl)amino]-N-(1H-pyrrol-2-ylmethyl)furo[2,3-d]pyrimidine-5-carboxamide]: the IC50 was 10 to 100 nM.

In the case of `Cc1oc2ncnc(NC3(C)CC3)c2c1C(=O)NCc1ccn(C)n1` [Example 99, 6-Methyl-N-[(1-methyl-1H-pyrazol-3-yl)methyl]-4-[(1-methylcyclopropyl)amino]furo[2,3-d]pyrimidine-5-carboxamide], the IC50 was 10 to 100 nM.

On to `Cc1oc2ncnc(NC3(C)CC3)c2c1C(=O)NCc1cocn1` [Example 100, 6-Methyl-4-[(1-methylcyclopropyl)amino]-N-(1,3-oxazol-4-ylmethyl)furo[2,3-d]pyrimidine-5-carboxamide], for which the IC50 is 10 to 100 nM.

On to `Cc1oc2ncnc(NC3(C)CC3)c2c1C(=O)NCc1ccnn1C` [Example 102, 6-Methyl-N-[(1-methyl-1H-pyrazol-5-yl)methyl]-4-[(1-methylcyclopropyl)amino]furo[2,3-d]pyrimidine-5-carboxamide], for which the IC50 was 10 to 100 nM.

Regarding `Cc1oc2ncnc(NC3(C)CC3)c2c1C(=O)NC1(C)CCC1` [Example 104, 6-Methyl-N-(1-methylcyclobutyl)-4-[(1-methylcyclopropyl)amino]furo[2,3-d]pyrimidine-5-carboxamide], the IC50 was 10 to 100 nM.

On to `Cc1oc2ncnc(NC3(C)CC3)c2c1C(=O)NC1(C)COC1` [Example 105, 6-Methyl-4-[(1-methylcyclopropyl)amino]-N-(3-methyloxetan-3-yl)furo[2,3-d]pyrimidine-5-carboxamide], for which the IC50 is 10 to 100 nM.

Take `Cc1oc2ncnc(NC3(C)CC3)c2c1C(=O)NC1CCOC1` (centres unmarked) [Example 106, 6-Methyl-4-[(1-methylcyclopropyl)amino]-N-(oxolan-3-yl)furo[2,3-d]pyrimidine-5-carboxamide]: the IC50 is 10 to 100 nM.
